Positions of bridges follow the written chain, without caps; N, C: chain ends. No end group written: not given here.
Columns and labels:
MC3T3 cells [1] = assay: eGFP protein expression after mRNA transfection, live-cell confocal microscopy; type: cell-based, murine; conditions: N/P 3, eGFP mRNA, 24 h post-transfection
Protocol: (§1) Peptide-mRNA polyplexes were formulated as previously described.[40],[41] In short, two separate stock solutions of mRNA and peptide were prepared in MQ and simultaneously dispensed with electronically dispensing pipettes (E4 Electronic Pipette, LTS E4-100XLS+, Mettler-Toledo Rainin, LLC, Oakland, CA, USA) at a flow rate of 11 mL min^–1. All polyplexes were formed at a concentration of at least 10-fold the final intended concentration for transfections.
(§2) One day before mRNA transfections, 10 000 MC3T3 cells in 100 μL were seeded in 96-well plates (Greiner Bio-One Cat. No. 655180) or 20 000 cells in 200 μL in μ-slide eight-well chambers (Ibidi, Gräfelfing, Germany). These seeding densities ensured confluency between ∼70 and 90% on the day of transfection. mRNA transfections were performed by removing the complete medium from the wells and replacing it with mRNA nanoparticles diluted 10 times in complete medium. Cells were exposed to mRNA nanoparticles for 2 h at 37 °C, 5% CO2, in a humidified incubator. For some experiments, cells were stained with 200 μL of 1 μM CellTrace yellow (Thermo Fisher Scientific, Cat. No. C34567) directly after the nanoparticle incubation, according to the manufacturer’s instructions. Regardless of the tested N/P ratio or type of nanoparticle, mRNA inputs were equalized across conditions, resulting in 107 ng/well for luciferase assays in 96-well plate formats and 214 ng/well for confocal microscopy experiments. […] For untreated controls, complete cell culture medium was added and refreshed as often as in the experimental conditions.
Before microscopy, complete medium containing phenol red was replaced with an equal volume of phenol red-free and HEPES-formulated Opti-MEM (Gibco). The uptake of Cy5-eGFP mRNA-formulated nanoparticles was assessed 2 h post-transfection, and eGFP expression was assessed 24 h post-transfection. […] All laser lines were generated by a white-light laser, and emissions were detected with hybrid detectors. […]

MC3T3 cells [2] = assay: Luciferase expression after SecNLuc mRNA transfection (Nano-Glo); type: cell-based, murine
Protocol: as §1
One day before mRNA transfections, 10 000 MC3T3 cells in 100 μL were seeded in 96-well plates (Greiner Bio-One Cat. No. 655180) or 20 000 cells in 200 μL in μ-slide eight-well chambers (Ibidi, Gräfelfing, Germany). These seeding densities ensured confluency between ∼70 and 90% on the day of transfection. mRNA transfections were performed by removing the complete medium from the wells and replacing it with mRNA nanoparticles diluted 10 times in complete medium. Cells were exposed to mRNA nanoparticles for 2 h at 37 °C, 5% CO2, in a humidified incubator. […]
The extent of luciferase production was determined using the Nano-Glo Luciferase Assay (Promega, Madison, WI, USA, Cat No. N1130) according to the manufacturer’s instructions. […] Luminescence was measured after briefly shaking the plate using the VICTOR X3Multilabel Plate Reader (PerkinElmer, Waltham, MA, USA).

HeLa cells = assay: as above; type: cell-based, human
[3] = Heparin-mediated polyplex decomplexation assay (QuantiFluor RNA); type: physicochemical; conditions: N/P 1 and 3, low or high heparin amounts; Figure S8
Protocol: For testing the stability of mRNA polyplexes, a polyanion decomplexation assay, mediated by the polyanionic heparin (heparin sodium salt from porcine intestinal mucosa, Cat. No. H3149-100 KU, Sigma-Aldrich) was performed. mRNA polyplexes were freshly prepared with uncapped SecNLuc mRNA (RIBOPRO), as described in the section mRNA Nanoparticle Formation. Following polyplex formation, all samples were incubated for at least 30 min at room temperature. Importantly, separate stock solutions of heparin were made to ensure an equal volume across conditions regardless of heparin concentration. For decomplexation, 5 μL of 10× polyplexes were diluted in RNase-free TE-buffer at pH 7.5 (Promega, Cat. No. E260A) supplemented with an equal volume of heparin across conditions to a total volume of 50 μL in a 384-well plate (Greiner Bio-One, Cat. No. 781101). All samples were quickly spun down before incubation at 37 °C for 90 min. The QuantiFluor RNA System (Promega, Cat. No. E3310) was used with a 1:2000 dilution of RNA-binding dye for all tested conditions to detect released mRNA. For quantification, a calibration curve with uncapped SecNLuc mRNA was made, spanning from 0.19 ng mRNA/well to 50 ng mRNA/well. For detection of released mRNA, the dye was excited at 485 nm, and emission was collected at 535 nm using the VICTOR X3Multilabel Plate Reader (PerkinElmer)
Data analysis was performed using GraphPad Prism (GraphPad Software, version 8.4.2, San Diego, CA, USA). Data are presented as means ± standard deviation (SD) unless stated otherwise. Means were calculated by first averaging the technical replicates, for which outliers were identified using Grubbs’ test, followed by averaging the biological replicates. Before statistical analysis, all data were checked for normal distribution with a Shapiro–Wilk test. Statistical analysis was done using one- or two-way analysis of variance (ANOVA). Multiple comparisons were corrected using Tukey’s test with 95% confidence intervals. For the mRNA standard curve used in heparin decomplexation assays, the coefficient of variation was determined both in the standards and in samples and was ≤20%. The standard curve was fitted using a sigmoidal four-parameter logistic curve. The standard curve was back fitted with ±10% accuracy to verify the correctness of the fit. The signals from samples were blanked with the appropriate solution (TE buffer) before calculating interpolations. p > 0.05 was considered not significant, and p values were reported using the GraphPad Prism style (*p ≤ 0.05, **p ≤ 0.01, ***p ≤ 0.001, and ****p ≤ 0.0001).

[4] = Dynamic light scattering of peptide-mRNA nanoparticles; type: physicochemical; conditions: hLF-v1 mRNA polyplexes, context: upon polymerization; N/P not printed at the place; DLS 25 °C, no serum
Protocol: as §1
The hydrodynamic diameter of the nanoparticles was measured at 25 °C by dynamic light scattering (DLS) using a Zetasizer Nano ZS (Malvern Instruments, Worcestershire, UK) equipped with a 4 mW He–Ne laser (633 nm) with a backscatter detection angle of 173°. At least 40 μL of 10 times concentrated nanoparticle solution was measured in a UV-cuvette (BrandTech Scientific, Essex, CT, USA, Cat. No. 759200).

MC3T3 cells [5] = assay: Cellular uptake of Cy5-eGFP mRNA polyplexes, live-cell confocal microscopy; type: cell-based, murine
Protocol: as §1, §2
Before microscopy, complete medium containing phenol red was replaced with an equal volume of phenol red-free and HEPES-formulated Opti-MEM (Gibco). The uptake of Cy5-eGFP mRNA-formulated nanoparticles was assessed 2 h post-transfection, and eGFP expression was assessed 24 h post-transfection. Live-cell imaging was performed using a Leica TCS SP8 SMD (Leica Microsystems, Mannheim, Germany) with an HC PL APO CS2 63×/1.20 water objective and a temperature-controlled stage at 36.5 °C. eGFP was excited at 488 nm (emission: 500–550 nm). CellTrace yellow was excited at 555 nm (emission: 570–620 nm), and Cy5 was excited at 633 nm (emission: 650–690 nm). All laser lines were generated by a white-light laser, and emissions were detected with hybrid detectors. All channels were sequentially acquired to avoid crosstalk at a bit depth of 12. Except for the LMM eGFP conditions (reduced gain), equal acquisition settings (pixel size, pinhole, laser power, and gain) per fluorophore were used within the experiments.
Quantification of the Cy5 fluorescence was performed as previously described.[59],[60] In brief, five separate images (unless stated otherwise) containing approximately 10 cells per image were analyzed using ImageJ (version 1.53f51). A square mask of 184.52 μm^2 was used to quantify the raw integrated density (sum of all pixels in a region of interest). Importantly, cell confluencies ranged from ∼80–95%, ensuring minimal impact of cell density on total fluorescence values. The brightness and contrast of the images were adjusted to find a cell-free region to determine background fluorescence. Then, a circle was drawn to measure the background fluorescence. To obtain the corrected total cellular fluorescence (CTCF), the area (in pixels) was multiplied by the mean gray value of the background and subsequently subtracted from the raw integrated density.

KCFQWLRNLRKVRALLVSCLKR (disulfide 2-19 (inferred)) [poly hLF-v1, polymeric hLF-v1]
eGFP protein expression (MC3T3 cells [1]): successful delivery | luciferase expression as fraction of PF14-induced expression (MC3T3 cells [2]; MC3T3, N/P 5): approximately half | luciferase expression (HeLa cells; N/P 3, compared to untreated): significant luciferase expression | luciferase expression higher than PF14 (HeLa cells; N/P 5): ~5% | difference in heparin decomplexation [3]: no difference

KCFQWLRNLRKVRALLVSCLKR [hLF-v1, amphipathic hLF variant with PF14 motifs and the same cationic amino acids as hLF-WT]
monodisperse particle size by DLS [4]: 72 ± 2.1 nm | effect of oligomerization on uptake (MC3T3 cells [5]; 2 h incubation, Cy5-labeled mRNA, polymerized vs monomeric, Figure 5, Figure S5): no benefit for uptake | uptake of Cy5-labeled mRNA polyplexes of amphipathic hLF variants (MC3T3 cells [5]; 2 h incubation, live-cell confocal microscopy, serum present, Figure 5, four independent experiments): performed the worst and tended to aggregate upon polymerization | eGFP protein expression (MC3T3 cells [1]): fewer cells were positive for eGFP expression than for PF14

KCFQWQRNMRKVRGPPVSCIKR [hLF-WT]
ratio of Poly hLF-x vs Mono-hLF-x, Corrected Total Cellular Fluorescence (Cy5) (MC3T3 cells [5]; Cy5-eGFP mRNA polyplexes, 2 h post-transfection, n = 5 fields of view per condition): 2.33 x | cellular uptake of Cy5-labeled eGFP mRNA (MC3T3 cells [5]; N/P 3 polyplexes (LMM lipoplexes), 2 h post-transfection, complete medium with 10% FBS, confocal, Figure 1, five independent experiments): only little uptake | eGFP protein expression (MC3T3 cells [1]): no expression | luciferase activity (MC3T3 cells [2]; MC3T3, independent of the N/P ratio (3 or 5)): no activity

From paper PMC10587869, “Deciphering Structural Determinants Distinguishing Active from Inactive Cell-Penetrating Peptides for Cytosolic mRNA Delivery” (Bioconjugate Chemistry, 2023)
